Laboratory results from US8901118B2, “Compounds and methods for kinase modulation, and indications therefor” (Plexxikon Inc., priority 2010, dated 2014).

Experiments:
CYP2C19 = CYP2C19 (Homo sapiens, UniProt P33261); assay: CYP2C19 inhibition (fluorescent substrate CEC); assay type: in vitro ADME; details: read-out: Cyp IC50 2C19
Procedure: (§1) CYP (Cytochrome P450) enzymes are the major drug metabolizing enzymes present in the liver. The inhibition of CYP enzyme activity (IC50) for each of CYP1A2, CYP2C19, CYP2C9, CYP2D6, CYP3A4(BFC) and CYP3A4(BQ) is determined for compounds, where inhibition of metabolism of a known substrate leads to a decrease in the fluorescence of the metabolized product. The fluorescence of the product is monitored as a function of compound concentration. Compounds are dissolved in DMSO to a concentration of 100 mM. These are diluted 1 μL into 82 μL of acetonitrile. An 11 μL aliquot of this solution is then added to 204 μL of cofactor mix (1.3% NADPH Regeneration system Solution A, 1.04% NADPH Regeneration system Solution B from BD Biosciences, 5% acetonitrile and 0.05% DMSO). These are then serially diluted 1:1 (160 μL to 160 μL co-factor mix) for a total of 10 points. A 10 μL aliquot of this final mixture is dispensed into 384 well assay plates and incubated for 10 minutes at 37° C. […] Assay plates are incubated at 37° C. (CYP1A2-15 min; CYP2C9-45 min; CYP2C19, 2D6 and 3A4-30 min) and read in a Tecan Safire 2 plate reader (CYP1A2, 2C19 and 3A4 409 ex/460 em; CYP2C9 and 2D6 409 ex/530 em). The signal versus compound concentration is used to determine the IC50. The enzymes and substrates for this assay are obtained from BD Biosciences.

c-Kit kinase = c-Kit kinase (Homo sapiens, UniProt P10721); assay: c-Kit kinase biochemical activity assay (AlphaScreen, biotin-(E4Y)10 phosphorylation); details: 100 μM ATP; read-out: Biochemical Inhibition IC50 Kit
Procedure: Assays for biochemical and cell based activity are known in the art, for example, U.S. Patent Application Publication Number 2009/0076046, the disclosure of which is hereby incorporated by reference as it relates to such assays. For example, in one assay the biochemical activity IC50 values are determined with respect to inhibition of c-Kit kinase activity, where inhibition of phosphorylation of a peptide substrate is measured as a function of compound concentration. Compounds to be tested are dissolved in DMSO to a concentration of 20 mM. These are diluted 30 μL into 120 μL of DMSO (4 mM) and 1 μL is added to an assay plate. These are then serially diluted […] (50 μL to 100 μL DMSO) for a total of 8 points. Plates are prepared such that each kinase reaction is 20 μL in 1× kinase buffer (25 mM HEPES, pH 7.5, 2 mM MgCl2, 2 mM MnCl2, 0.01% Tween-20, 1 mM DTT, 0.01% BSA), 5% DMSO and 100 μM ATP. Substrate is 30 nM biotin-(E4Y) 10 (Millipore). C-kit kinase (obtained from Millipore (#14-559) or is prepared as described in U.S. Patent Application Publication Number 2009/0076046, the disclosure of which is hereby incorporated by reference as it relates to this assay) is at 0.75 ng per sample. After incubation of the kinase reaction for 1 hour at room temperature, 5 μL of donor beads (Streptavidin coated beads (Perkin Elmer Life Science) final concentration 10 μg/mL) in stop buffer (25 mM Hepes pH 7.5, 100 mM EDTA, 0.01% BSA) is added, the sample is mixed and incubated for 20 minutes at room temperature before adding 5 μL of acceptor beads (PY20 coated beads (Perkin Elmer Life Science) final concentration 10 μg/mL) in stop buffer. The samples are incubated for 60 minutes at room temperature and the signal per well is read on Envision reader. Phosphorylated substrate results in binding of the PY20 antibody and association of the donor and acceptor beads such that signal correlates with kinase activity. The signal vs. compound concentration is used to determine the IC50.

CYP3A4(BFC) = CYP3A4(BFC) (Homo sapiens, UniProt P08684); assay: CYP3A4(BFC) inhibition; assay type: in vitro ADME; details: CYP3A4, substrate BFC; read-out: Cyp IC50 3A4(BFC)
Procedure: as §1

Fms kinase = Fms kinase (Homo sapiens, UniProt P07333); assay: Fms kinase biochemical activity assay (AlphaScreen, biotin-(E4Y)10 phosphorylation); details: 100 μM ATP; read-out: Biochemical Inhibition IC50 Fms
Procedure: In one assay the biochemical activity IC50 values are determined with respect to inhibition of Fms kinase activity, where inhibition of phosphorylation of a peptide substrate is measured as a function of compound concentration. Compounds to be tested, dissolved in DMSO (1 μL), are added to a white 384-well plate (Costar #3705). Working stocks of Fms kinase (Invitrogen #PV3249), biotin-(E4Y)10 substrate (Upstate Biotech, Cat#12-440), and ATP (Sigma, Cat#A-3377) are prepared in 25 mM Hepes pH 7.5, 0.5 mM MgCl2, 2 mM MnCl2, 2 mM DTT, 0.01% BSA, and 0.01% Tween-20. All components are added to the 384-well plate for a final concentration of 1 ng/well Fms, 30 nM biotin-(E4Y)10 (Upstate Biotechnology) and 100 μM ATP in a volume of 20 μL. Each sample is at 5% DMSO. The plate is then incubated for 20 minutes at 30° C. Just before use, working stocks of donor and acceptor beads from the AlphaScreen PY20 Detection Kit (PerkinElmer, Cat#676601M) are prepared in 25 mM Hepes pH 7.5, pH 7.4, 100 mM EDTA, 0.01% BSA. To stop the reaction, the plate is uncovered in the dark and 5 μL of Donor Beads solution (Streptavidin beads) is added to each well. The plate is incubated at room temperature for 20 minutes. Five microliters of Acceptor Beads solution (PY20 coated beads) are then added to each well. The final concentration of each bead is 10 μg/mL. The plates are incubated at room temperature for 60 minutes. Fluorescence signal is recorded on the Envision reader. Phosphorylated substrate results in binding of the PY20 antibody and association of the donor and acceptor beads such that signal correlates with kinase activity. The signal vs. compound concentration is used to determine the IC50.

Sequence of Fms kinase (P07333 20-972): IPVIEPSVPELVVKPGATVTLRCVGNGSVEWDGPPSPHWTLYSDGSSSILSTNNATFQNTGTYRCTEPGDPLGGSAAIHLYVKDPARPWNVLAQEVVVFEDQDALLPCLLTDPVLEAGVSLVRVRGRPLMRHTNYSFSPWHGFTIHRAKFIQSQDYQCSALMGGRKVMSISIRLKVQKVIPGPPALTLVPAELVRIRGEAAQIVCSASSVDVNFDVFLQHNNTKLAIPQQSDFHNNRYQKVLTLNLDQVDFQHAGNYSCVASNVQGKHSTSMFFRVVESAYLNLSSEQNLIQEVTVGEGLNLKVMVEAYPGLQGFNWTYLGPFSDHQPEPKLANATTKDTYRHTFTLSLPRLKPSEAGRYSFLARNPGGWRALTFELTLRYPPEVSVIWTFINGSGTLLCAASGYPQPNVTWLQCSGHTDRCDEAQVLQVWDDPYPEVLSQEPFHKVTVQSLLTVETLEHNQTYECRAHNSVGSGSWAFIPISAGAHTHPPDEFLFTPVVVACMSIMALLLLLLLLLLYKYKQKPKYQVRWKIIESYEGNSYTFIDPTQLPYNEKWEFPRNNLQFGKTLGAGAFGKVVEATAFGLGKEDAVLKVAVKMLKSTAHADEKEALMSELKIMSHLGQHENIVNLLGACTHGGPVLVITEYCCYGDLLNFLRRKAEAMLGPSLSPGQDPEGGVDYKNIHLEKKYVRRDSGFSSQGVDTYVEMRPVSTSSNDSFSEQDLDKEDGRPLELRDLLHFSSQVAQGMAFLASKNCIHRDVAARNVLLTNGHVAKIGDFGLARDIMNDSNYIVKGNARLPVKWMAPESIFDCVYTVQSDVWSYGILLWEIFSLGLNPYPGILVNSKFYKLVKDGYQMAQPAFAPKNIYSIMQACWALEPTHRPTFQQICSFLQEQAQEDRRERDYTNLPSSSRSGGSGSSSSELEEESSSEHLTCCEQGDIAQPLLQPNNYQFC
Sequence of c-Kit kinase (P10721 26-976): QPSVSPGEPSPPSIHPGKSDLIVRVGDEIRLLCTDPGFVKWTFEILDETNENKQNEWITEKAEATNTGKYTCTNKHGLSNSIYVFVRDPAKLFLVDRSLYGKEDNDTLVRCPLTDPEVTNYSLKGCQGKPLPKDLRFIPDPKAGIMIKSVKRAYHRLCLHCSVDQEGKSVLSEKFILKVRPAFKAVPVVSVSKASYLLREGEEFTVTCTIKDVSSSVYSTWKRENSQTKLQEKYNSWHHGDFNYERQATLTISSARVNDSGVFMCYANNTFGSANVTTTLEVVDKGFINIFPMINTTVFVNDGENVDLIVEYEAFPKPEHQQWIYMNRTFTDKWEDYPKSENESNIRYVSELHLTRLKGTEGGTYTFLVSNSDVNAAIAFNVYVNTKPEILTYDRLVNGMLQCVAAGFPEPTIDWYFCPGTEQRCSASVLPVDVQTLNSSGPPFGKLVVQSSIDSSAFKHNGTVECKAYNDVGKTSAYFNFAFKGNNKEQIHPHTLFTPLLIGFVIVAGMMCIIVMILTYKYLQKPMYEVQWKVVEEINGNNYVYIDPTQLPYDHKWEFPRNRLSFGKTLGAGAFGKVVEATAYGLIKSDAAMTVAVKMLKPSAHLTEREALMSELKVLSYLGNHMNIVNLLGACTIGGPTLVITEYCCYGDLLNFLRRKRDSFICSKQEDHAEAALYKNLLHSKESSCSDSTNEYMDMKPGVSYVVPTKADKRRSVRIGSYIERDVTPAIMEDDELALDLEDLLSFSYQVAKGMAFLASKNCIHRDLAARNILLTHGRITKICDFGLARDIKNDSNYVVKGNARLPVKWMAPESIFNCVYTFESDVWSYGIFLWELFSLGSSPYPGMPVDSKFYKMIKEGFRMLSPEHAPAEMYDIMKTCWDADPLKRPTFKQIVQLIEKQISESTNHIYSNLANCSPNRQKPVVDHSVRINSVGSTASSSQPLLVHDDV
Sequence of CYP2C19 (P33261 whole entry): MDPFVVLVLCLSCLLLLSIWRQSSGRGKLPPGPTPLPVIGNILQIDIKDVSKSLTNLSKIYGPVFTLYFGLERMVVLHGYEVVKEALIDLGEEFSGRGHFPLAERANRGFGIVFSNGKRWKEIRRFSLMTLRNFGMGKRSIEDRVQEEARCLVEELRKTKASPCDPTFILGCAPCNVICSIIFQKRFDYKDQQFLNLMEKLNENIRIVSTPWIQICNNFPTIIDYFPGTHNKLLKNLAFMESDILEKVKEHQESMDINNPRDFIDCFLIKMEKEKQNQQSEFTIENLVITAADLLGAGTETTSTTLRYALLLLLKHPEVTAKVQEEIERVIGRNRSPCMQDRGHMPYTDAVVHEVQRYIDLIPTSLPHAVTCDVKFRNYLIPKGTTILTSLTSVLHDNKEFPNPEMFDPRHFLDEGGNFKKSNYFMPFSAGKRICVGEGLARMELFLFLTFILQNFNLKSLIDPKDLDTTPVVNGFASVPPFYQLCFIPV
Sequence of CYP3A4(BFC) (P08684 whole entry): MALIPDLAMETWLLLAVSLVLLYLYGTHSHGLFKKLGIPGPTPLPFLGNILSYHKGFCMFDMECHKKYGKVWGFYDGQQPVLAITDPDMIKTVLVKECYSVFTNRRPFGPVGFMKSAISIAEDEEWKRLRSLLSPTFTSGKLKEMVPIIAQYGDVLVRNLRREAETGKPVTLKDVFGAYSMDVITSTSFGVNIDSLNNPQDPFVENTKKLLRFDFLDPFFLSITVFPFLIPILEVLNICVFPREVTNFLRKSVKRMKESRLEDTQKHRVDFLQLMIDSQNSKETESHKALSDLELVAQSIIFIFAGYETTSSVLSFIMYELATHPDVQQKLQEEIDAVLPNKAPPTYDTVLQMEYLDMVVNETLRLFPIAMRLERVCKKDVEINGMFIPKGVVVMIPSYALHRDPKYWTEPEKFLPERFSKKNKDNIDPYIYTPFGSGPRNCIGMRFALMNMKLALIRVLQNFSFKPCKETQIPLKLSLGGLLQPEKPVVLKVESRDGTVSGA

IC50 (CYP2C19) [µM] | IC50 (c-Kit kinase) [µM] | IC50 (CYP3A4(BFC)) [µM] | IC50 (Fms kinase) [µM] | SMILES
< 10 | > 1 | > 10 | < 0.1 | COc1ccc(Nc2ccc(C(=O)c3c[nH]c4ncnc(N[C@@H](C)c5ccc(F)cc5)c34)c(F)n2)cn1 [Compound P-4072, [2-fluoro-6-[(6-methoxy-3-pyridyl)amino]-3-pyridyl]-[4-[[(1S)-1-(4-fluorophenyl)ethyl]amino]-7H-pyrrolo[2,3-d]pyrimidin-5-yl]methanone]
< 5 | < 1 | > 10 | < 0.01 | Fc1nc(NC2CCC(F)(F)CC2)ccc1Cc1c[nH]c2ncc(Cl)cc12 [Compound P-3013, [5-(5-Chloro-1H-pyrrolo[2,3-b]pyridin-3-ylmethyl)-6-fluoro-pyridin-2-yl]-(4,4-difluoro-cyclohexyl)-amine]
> 10 | < 0.1 | > 10 | < 0.1 | CCc1ccc(Nc2ccc(C(=O)c3c[nH]c4ncnc(NCC5CC5)c34)c(F)n2)cn1 [Compound P-4118, [4-(cyclopropylmethylamino)-7H-pyrrolo[2,3-d]pyrimidin-5-yl]-[6-[(6-ethyl-3-pyridyl)amino]-2-fluoro-3-pyridyl]methanone]
< 5 | < 0.01 | > 10 | < 0.01 | CNc1ncnc2[nH]cc(C(=O)c3ccc(Nc4ccc(C5CC5)nc4)nc3F)c12 [Compound P-4094, [6-[(6-cyclopropyl-3-pyridyl)amino]-2-fluoro-3-pyridyl]-[4-(methylamino)-7H-pyrrolo[2,3-d]pyrimidin-5-yl]methanone]
> 10 | < 0.01 | > 10 | < 0.01 | CCc1ccc(Nc2ccc(C(=O)c3c[nH]c4ncnc(NCCOC)c34)c(F)n2)cn1 [Compound P-4119, [6-[(6-ethyl-3-pyridyl)amino]-2-fluoro-3-pyridyl]-[4-(2-methoxyethylamino)-7H-pyrrolo[2,3-d]pyrimidin-5-yl]methanone]
> 10 | < 0.1 | > 10 | < 0.01 | CCc1ccc(Nc2ccc(C(=O)c3c[nH]c4ncnc(NCC(C)(C)O)c34)c(F)n2)cn1 [Compound P-4064, [6-[(6-ethyl-3-pyridyl)amino]-2-fluoro-3-pyridyl]-[4-[(2-hydroxy-2-methyl-propyl)amino]-7H-pyrrolo[2,3-d]pyrimidin-5-yl]methanone]
> 10 | > 1 | > 10 | < 0.1 | CNc1ncnc2[nH]cc(C(=O)c3ccc(NC4CCC(F)(F)CC4)nc3Cl)c12 [Compound P-4058, [2-chloro-6-[(4,4-difluorocyclohexyl)amino]-3-pyridyl]-[4-(methylamino)-7H-pyrrolo[2,3-d]pyrimidin-5-yl]methanone]
5 to 10 | < 1 | > 10 | < 0.1 | COc1ccc(Nc2ccc(C(=O)c3c[nH]c4ncnc(NCC5CCCO5)c34)c(F)n2)cn1 (stereo not drawn) [Compound P-4073, [2-fluoro-6-[(6-methoxy-3-pyridyl)amino]-3-pyridyl]-[4-(tetrahydrofuran-2-ylmethylamino)-7H-pyrrolo[2,3-d]pyrimidin-5-yl]methanone]
> 10 | < 1 | > 10 | < 0.1 | CNc1ncnc2[nH]cc(C(=O)c3ccc(NC4CCC(F)(F)CC4)nc3)c12 [Compound P-4089, [6-[(4,4-difluorocyclohexyl)amino]-3-pyridyl]-[4-(methylamino)-7H-pyrrolo[2,3-d]pyrimidin-5-yl]methanone]
5 to 10 | < 1 | > 10 | < 0.1 | Cc1ccc(Nc2ccc(C(=O)c3c[nH]c4ncnc(NC5CCCCC5)c34)c(F)n2)cn1 [Compound P-4111, [4-(cyclohexylamino)-7H-pyrrolo[2,3-d]pyrimidin-5-yl]-[2-fluoro-6-[(6-methyl-3-pyridyl)amino]-3-pyridyl]methanone]
> 10 | < 0.1 | > 10 | < 0.01 | Cc1cnc2[nH]cc(Cc3cnc(Nc4ccc(F)cc4)nc3)c2c1 [Compound P-3010, (4-Fluoro-phenyl)-[5-(5-methyl-1H-pyrrolo[2,3-b]pyridin-3-ylmethyl)-pyrimidin-2-yl]-amine]
< 5 | < 0.1 | > 10 | < 0.1 | COc1cncc(Nc2ccc(C(=O)c3c[nH]c4ncnc(NC5CC5)c34)c(F)n2)c1 [Compound P-4107, [4-(cyclopropylamino)-7H-pyrrolo[2,3-d]pyrimidin-5-yl]-[2-fluoro-6-[(5-methoxy-3-pyridyl)amino]-3-pyridyl]methanone]
> 10 | > 1 | > 10 | > 1 | COc1ccc(Nc2ccc(C(=O)c3c[nH]c4ncnc(N5CCOCC5)c34)c(F)n2)cn1 [Compound P-4070, [2-fluoro-6-[(6-methoxy-3-pyridyl)amino]-3-pyridyl]-(4-morpholino-7H-pyrrolo[2,3-d]pyrimidin-5-yl)methanone]
> 10 | < 0.1 | > 10 | < 0.01 | CCCNc1ncnc2[nH]cc(C(=O)c3ccc(Nc4ccc(OC)nc4)nc3F)c12 [Compound P-4068, [2-fluoro-6-[(6-methoxy-3-pyridyl)amino]-3-pyridyl]-[4-(propylamino)-7H-pyrrolo[2,3-d]pyrimidin-5-yl]methanone]
< 5 | < 0.1 | > 10 | < 0.1 | CCc1ccc(Nc2ccc(C(=O)c3c[nH]c4ncnc(NC5CCCC5)c34)c(F)n2)cn1 [Compound P-4099, [4-(cyclopentylamino)-7H-pyrrolo[2,3-d]pyrimidin-5-yl]-[6-[(6-ethyl-3-pyridyl)amino]-2-fluoro-3-pyridyl]methanone]
